Here are results for 10 compounds from ChEMBL document CHEMBL1201862, “PubChem BioAssay data set” (2004).

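How tested: cells in 96-well plates exposed to compound for 48 hours at five concentrations. Here, GI50 denotes the concentration required for 50% inhibition of growth.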 The source made the active and inactive calls. Rule as the data show it: active = GI50 up to about 1.1 µM and inactive = higher.

What all share (assay): NCI tumour cell line growth inhibition, 48 h
Experiment [1] has as its system NCI-H522.
In experiment [2] the test system is UACC-257.
For experiment [3], the system named is K562.
Experiment [4] concerns HCT-116.
Experiment [5] concerns CCRF-CEM.
Experiment [6] deals with HL-60.
The subject of experiment [7] is SF-268.
The subject of experiment [8] is SK-OV-3.
In experiment [9] the test system is LOX IMVI.
Experiment [10] has as its system MDA-N.
Experiment [11] deals with HOP-92.
Experiment [12] deals with BT-549.
For experiment [13], the system named is CAKI-1.
Experiment [14] concerns SR.
Experiment [15] concerns 786-0.
Experiment [16] concerns PC-3.
Experiment [17] concerns SNB-19.
The test system of experiment [18] is OVCAR-8.
The subject of experiment [19] is SN12C.

As for `CN(C(=O)c1ccccc1)C1CCCC(=O)CC1` (stereo not given), the GI50 in experiment [1], in experiment [2], in experiment [3], in experiment [4], in experiment [5] and in experiment [6] was > 100 µM (inactive) throughout. The GI50 in [7], in experiment [8], in experiment [9], in experiment [10], in experiment [11] and in experiment [12] was > 100 µM (inactive) throughout. The GI50 in experiment [13], in experiment [14], in experiment [15], in experiment [16], in experiment [17] and in experiment [18] was > 100 µM (inactive) throughout. Besides, the GI50 in experiment [19] was > 100 µM (inactive).

On to `O=C(NC(=S)Nc1ccc2c(c1)Sc1ccccc1O2)c1ccc([N+](=O)[O-])cc1`, for which the GI50 in [1], in [2], in [3], in [4], in experiment [5] and in [6] was > 100 µM (inactive) in each case. The GI50 in [7], in experiment [8], in experiment [9], in experiment [10], in [11] and in experiment [12] was > 100 µM (inactive) each time. Besides, the GI50 in experiment [13], in experiment [14], in [15], in [16], in experiment [17] and in experiment [18] was > 100 µM (inactive) in each case. In addition, the GI50 in [19] is > 100 µM (inactive).

Turning to `CCN(CC)CCc1c2c(nc3ccccc13)C(=O)c1cccnc1C2=O`, the GI50 in [1] is 0.731 µM (active); in experiment [2], 1.38 µM (inactive); in [3], 1.16 µM (inactive); in experiment [4] it was 0.325 µM (active); in experiment [5] it was 1.97 µM (inactive); in experiment [6] it was 0.251 µM (active). Also, the GI50 in [7] is 2.44 µM (inactive); in [8] it was 1.09 µM (active); in experiment [9], 0.369 µM (active); in [10] it was 1.67 µM (inactive); in experiment [11], 3.13 µM (inactive); in experiment [12] it was 2.4 µM (inactive). The GI50 in experiment [13] is 2.03 µM (inactive); in experiment [14] it was 0.211 µM (active); in [15] it was 2.07 µM (inactive); in experiment [16], 2.82 µM (inactive); in [18], 3.52 µM (inactive); in [19], 1.1 µM (active).

As to `Cc1ccc(NCC2CC/C(=C\c3ccc(Cl)cc3)C2=O)cc1` (stereo not given), the GI50 in experiment [1] is 7.38 µM (inactive); in experiment [2] it was 17.4 µM (inactive); in experiment [3], 1.74 µM (inactive); in [4], 11.6 µM (inactive); in [5], 2.39 µM (inactive); in experiment [6], 2.16 µM (inactive). Moreover, the GI50 in [7] is 18.5 µM (inactive); in [8], > 100 µM (inactive); in experiment [9] it was 6.03 µM (inactive); in experiment [10], 13.6 µM (inactive); in experiment [11], 0.569 µM (active); in [12], 15.3 µM (inactive). For the same compound, the GI50 in [13] is 15.2 µM (inactive); in experiment [14], 3.87 µM (inactive); in [15], 4.12 µM (inactive); in experiment [16], 14.9 µM (inactive); in [17] it was 21.2 µM (inactive); in experiment [18], 15.9 µM (inactive). Further, the GI50 in experiment [19] was 13.1 µM (inactive).

For `CC(NNC(=O)c1cc[n+]([BH2-]C#N)cc1)c1ccccc1` (stereo not given), the GI50 in experiment [1], in experiment [2], in [3], in experiment [4], in experiment [5] and in experiment [6] was > 100 µM (inactive) throughout. Also, the GI50 in [7], in experiment [8], in experiment [9], in [10], in experiment [11] and in experiment [12] was > 100 µM (inactive) throughout. For the same compound, the GI50 in experiment [13], in experiment [14], in experiment [15], in experiment [16], in experiment [17] and in experiment [18] was > 100 µM (inactive) in each case. The GI50 in experiment [19] is > 100 µM (inactive).

For `CCC(C)C(NC(=O)C(CCCCN)NC(=O)C(NC(=O)C(CCC(N)=O)NC(=O)C(CCCNC(=N)N)NC(C)=O)C(C)CC)C(=O)NC(Cc1c[nH]c2ccccc12)C(=O)NC(Cc1ccccc1)C(=O)NC(CCC(N)=O)C(=O)NC(CC(N)=O)C(=O)NC(CCCNC(=N)N)C(=O)NC(CCCNC(=N)N)C(=O)NC(CCSC)C(=O)NC(CCCCN)C(=O)NC(Cc1c[nH]c2ccccc12)C(=O)NC(CCCCN)C(=O)NC(CCCCN)C(N)=O` (stereo not given), the GI50 in experiment [1] is > 50 µM (inactive); in [2] it was 46.5 µM (inactive); in experiment [3] it was 22.8 µM (inactive); in experiment [4], > 50 µM (inactive); in [5], 22.4 µM (inactive); in experiment [6] it was > 50 µM (inactive). Moreover, the GI50 in experiment [7] was 45.1 µM (inactive); in experiment [8] it was 31.7 µM (inactive); in [9], > 50 µM (inactive); in experiment [10], > 50 µM (inactive); in experiment [11], > 50 µM (inactive); in [12], > 50 µM (inactive). In addition, the GI50 in experiment [13] was 35.5 µM (inactive); in experiment [14] it was > 50 µM (inactive); in [15] it was 12 µM (inactive); in experiment [16], > 50 µM (inactive); in experiment [17], > 50 µM (inactive); in experiment [18], 49.2 µM (inactive). The GI50 in [19] is 16.5 µM (inactive).

For the compound `COc1cc(Nc2cnc3cc(F)c(F)cc3n2)cc(OC)c1`, the GI50 in experiment [1] was 11.4 µM (inactive); in experiment [2], > 100 µM (inactive); in experiment [4] it was 58.1 µM (inactive); in experiment [5] it was > 100 µM (inactive); in experiment [6], > 100 µM (inactive); in experiment [7] it was 43.7 µM (inactive). For the same compound, the GI50 was 21.3 µM (inactive) in [8]; 67.3 µM (inactive) in experiment [9]; > 100 µM (inactive) in experiment [10]; 25.8 µM (inactive) in experiment [11]; 33.9 µM (inactive) in experiment [12]; > 100 µM (inactive) in experiment [13]. The GI50 is > 100 µM (inactive) in experiment [14]; 37.9 µM (inactive) in experiment [15]; > 100 µM (inactive) in experiment [16]; 26.2 µM (inactive) in [17]; > 100 µM (inactive) in [18]; > 100 µM (inactive) in experiment [19].

Consider `CCOC(=O)c1c(C)n(Cc2ccc(Cl)cc2Cl)c2c1cc(O)c1[nH]c3c(c12)CCCC3`, for which the GI50 was 16.1 µM (inactive) in experiment [1]; 19.3 µM (inactive) in [2]; 40.7 µM (inactive) in experiment [4]; 16.8 µM (inactive) in experiment [5]; < 0.01 µM (active) in experiment [6]; 20.8 µM (inactive) in experiment [7]. The GI50 in [8] is 41.2 µM (inactive); in experiment [9] it was 33.5 µM (inactive); in [10], 21.2 µM (inactive); in [11] it was 20.2 µM (inactive); in experiment [12] it was 18.9 µM (inactive); in experiment [13], 22.8 µM (inactive). For the same compound, the GI50 in [14] was 0.136 µM (active); in experiment [15], 30.1 µM (inactive); in experiment [16], 19.9 µM (inactive); in experiment [17], 23.6 µM (inactive); in experiment [18], 11.4 µM (inactive); in [19], 22.9 µM (inactive).

`C=C(C)C(=O)O[C@H]1[C@H]2[C@H](OC(=O)[C@H]2C)[C@H](O)[C@@H](C)[C@@H]2C=CC(=O)[C@]21C`: the GI50 in experiment [1] is 1.2 µM (inactive); in [2], 2.13 µM (inactive); in experiment [4], 2.32 µM (inactive); in [5], 2.07 µM (inactive); in experiment [6], 0.692 µM (active); in experiment [7], 3.4 µM (inactive). Also, the GI50 is 5.9 µM (inactive) in experiment [8]; 2.62 µM (inactive) in [9]; 2.58 µM (inactive) in [10]; 3.66 µM (inactive) in [11]; 3.83 µM (inactive) in [12]; 2.55 µM (inactive) in experiment [13]. In addition, the GI50 in [14] was 1.73 µM (inactive); in experiment [15], 2.49 µM (inactive); in experiment [16] it was 4.51 µM (inactive); in experiment [17], 4.93 µM (inactive); in experiment [18] it was 1.94 µM (inactive); in experiment [19] it was 2.08 µM (inactive).

With `c1ccc(C(NCC2CCO2)(c2ccccc2)c2ccccc2)cc1` (stereo not given), the GI50 in experiment [1] is 13.5 µM (inactive); in [2], 19.4 µM (inactive); in experiment [3], 34.1 µM (inactive); in experiment [4], 21.5 µM (inactive); in [5], 33.3 µM (inactive); in [6] it was 19.3 µM (inactive). The GI50 in [8] was 19.7 µM (inactive); in experiment [9] it was 28.6 µM (inactive); in experiment [10], 24.3 µM (inactive); in experiment [11], 13.9 µM (inactive); in [12], 22.3 µM (inactive); in experiment [13] it was 23.9 µM (inactive). Also, the GI50 in experiment [14] is 36.3 µM (inactive); in experiment [15], 20 µM (inactive); in experiment [16], 15.8 µM (inactive); in [17], 13.7 µM (inactive); in [18], 12.6 µM (inactive); in [19] it was 22.8 µM (inactive).
